Data reported in patent publication US5589510A, “Method for inhibiting retroviral infection by administering a naphthalenesulfonic acid compound” (priority 1995, dated 1996).
Like-named read-outs stand apart in the source and are kept apart here.

How the values were obtained:
[1] = tested on: HIV-1 RF; assay: Antiviral assay, Experimental Protocol I (compound added after infection); type: cell-based; settings: Human immunodeficiency virus 1, 240 h, p24 ELISA, read-out: % Inhibition (after day 10); for inhibition at 1.25 µg/mL: 1.25 μg/ml; for inhibition at 2.5 µg/mL: 2.5 μg/ml; for inhibition at 5 µg/mL: 5 μg/ml; for inhibition at 0.6 µg/mL: 0.6 μg/ml
Description: HIV-1 infectivity studies were conducted in CEM, H9, MT2 cells and peripheral blood mononuclear cells (PBMC). CEM, H9 and MT2 were grown in RPMI1640 medium, 10% heat-inactivated fetal bovine serum (FBS). PBMCs were stimulated with 4 μg/ml PHA for 48 hours in RPMI1640, 10% FBS before HIV-1 infection. After HIV-1 infection, PBMCs were maintained in RPMI 1640, 10% FBS and 10 10 units/ml IL-2. The major HIV-1 isolates used were MN, IIIB, SF2, AZT-sensitive A018 and AZT-resistant A018 provided by NIH AIDS research and reference reagent program. Two major antiviral assays were developed to determine the antiviral activities of the compounds of this invention (as inhibitors).
I. The cells were infected with HIV-1 RF or IIIB at an infectivity multiplicity (moi) of 0.001 in the absence of a compound of this invention for one hour. HIV-1 infected cells were washed once with PBS, resuspended in RPMI1640, 10% FBS medium and distributed in 24-well culture dishes (5×10^5 cells per well) in the presence of a compound of this invention as inhibitor. […]

[2] = LD50, intravenous, mice; type: in vivo; settings: mouse, in vivo, female mice, mortalities within 1 week
Description: The test material was administered intravenously to 5 female mice in five increasing doses. Mortalities were recorded within 1 week, and the LD50 was determined with the aid of statistical calculations.

[3] = tested on: TA98, TA1535, TA1537, TA1538, TA100 and W2P2uvr; assay: Ames Test (in the presence of S9); type: cell-based, Salmonella typhimurium; settings: for Ames Test, specific mutagenic activity: the higher the value, the higher the mutagenicity
From the text: Six Salmonella typhimuriumstrai strains, TA98, TA1535, TA1537, TA1538, TA100 and W2P2uvr were used in this experiment.

`COc1cc(N=Nc2c(S(=O)(=O)O)cc3cc(S(=O)(=O)O)cc(NC(=O)c4cccc(Cl)c4Cl)c3c2O)c(OC)cc1N=Nc1c(S(=O)(=O)O)cc2cc(S(=O)(=O)O)cc(NC(=O)Cc3ccccc3)c2c1O` [Compound 2] gave an inhibition at 1.25 µg/mL ([1]; 10% FCS) of 60%, an inhibition at 2.5 µg/mL ([1]; 10% FCS) of 73% and an inhibition at 5 µg/mL ([1]; 10% FCS) of 98%. For the same compound, the LD50 at 168 h [2] was 150 mg/kg and the “Ames Test result” value [3] was “Negative”.
For `COc1cc(N=Nc2c(S(=O)(=O)O)cc3cc(S(=O)(=O)O)cc(NC(=O)c4cccc(Cl)c4Cl)c3c2O)c(OC)cc1N=Nc1c(S(=O)(=O)O)cc2cc(S(=O)(=O)O)cc(NC(=O)c3cccc(Cl)c3Cl)c2c1O` [Compound 8], the inhibition at 0.6 µg/mL ([1]; 10% FCS) was 87%, the inhibition at 1.25 µg/mL ([1]; 10% FCS) was 99% and the inhibition at 2.5 µg/mL ([1]; 10% FCS) was 99%. It also gave an inhibition at 5 µg/mL ([1]; 10% FCS) of 99%, an inhibition at 1.25 µg/mL ([1]; 50% Human Serum) of 0% and an inhibition at 2.5 µg/mL ([1]; 50% Human Serum) of 0%. The inhibition at 5 µg/mL ([1]; 50% Human Serum) was 95%, the LD50 at 168 h [2] was 160 mg/kg and the “Ames Test result” value [3] was “Negative”.
Compound `COc1cc(N=Nc2c(S(=O)(=O)O)cc3cc(S(=O)(=O)O)cc(NC(=O)c4cccc(Cl)c4Cl)c3c2O)c(OC)cc1N=Nc1c(S(=O)(=O)O)cc2cc(S(=O)(=O)O)cc(NC(=O)c3cc(Cl)ccc3Cl)c2c1O` [Compound 9] has an inhibition at 0.6 µg/mL ([1]; 10% FCS) of 63%, an inhibition at 1.25 µg/mL ([1]; 10% FCS) of 99% and an inhibition at 2.5 µg/mL ([1]; 10% FCS) of 99%. For the same compound, the inhibition at 5 µg/mL ([1]; 10% FCS) was 100%, the inhibition at 0.6 µg/mL ([1]; 50% Human Serum) was 0% and the inhibition at 1.25 µg/mL ([1]; 50% Human Serum) was 0%. The inhibition at 2.5 µg/mL ([1]; 50% Human Serum) was 16%, the inhibition at 5 µg/mL ([1]; 50% Human Serum) was 90% and the LD50 at 168 h [2] was 150 mg/kg. The “Ames Test result” value [3] was “Negative”.
For `COc1cc(N=Nc2c(S(=O)(=O)O)cc3cc(S(=O)(=O)O)cc(NC(=O)c4cccc5ccccc45)c3c2O)c(OC)cc1N=Nc1c(S(=O)(=O)O)cc2cc(S(=O)(=O)O)cc(NC(=O)c3ccc(C(F)(F)F)cc3)c2c1O` [Compound 19], the LD50 at 168 h [2] was 140 mg/kg and the “Ames Test result” value [3] was “Negative”.
For `COc1cc(N=Nc2c(S(=O)(=O)O)cc3cc(S(=O)(=O)O)cc(NC(=O)c4ccc(Cl)cc4Cl)c3c2O)c(OC)cc1N=Nc1c(S(=O)(=O)O)cc2cc(S(=O)(=O)O)cc(NC(=O)Cc3cccc4ccccc34)c2c1O` [Compound 20], the LD50 at 168 h [2] was 150 mg/kg, the “Ames Test result” value [3] was “Positive” and the “Ames Test, specific mutagenic activity” value [3] was 0.08 colony no/μg.
In the case of `COc1cc(N=Nc2c(S(=O)(=O)O)cc3cc(S(=O)(=O)O)cc(NC(=O)c4cccc([N+](=O)[O-])c4)c3c2O)c(OC)cc1N=Nc1c(S(=O)(=O)O)cc2cc(S(=O)(=O)O)cc(NC(=O)c3ccccc3)c2c1O` [Compound 22], the LD50 at 168 h [2] was 140 mg/kg, the “Ames Test result” value [3] was “Positive” and the “Ames Test, specific mutagenic activity” value [3] was 0.4 colony no/μg.
In the case of `COc1cc(N=Nc2c(S(=O)(=O)O)cc3cc(S(=O)(=O)O)cc(NC(=O)c4ccc(C)cc4)c3c2O)c(OC)cc1N=Nc1c(S(=O)(=O)O)cc2cc(S(=O)(=O)O)cc(NC(=O)c3ccccc3)c2c1O` [Compound 23], the LD50 at 168 h [2] was 130 mg/kg and the “Ames Test result” value [3] was “Negative”.
For `COc1cc(N=Nc2c(S(=O)(=O)O)cc3cc(S(=O)(=O)O)cc(NC(=O)c4ccccc4)c3c2O)c(OC)cc1N=Nc1c(S(=O)(=O)O)cc2cc(S(=O)(=O)O)cc(NC(=O)Nc3ccc(F)cc3)c2c1O` [Compound 24], the LD50 at 168 h [2] was 140 mg/kg and the “Ames Test result” value [3] was “Negative”.
With `COc1cc(N=Nc2c(S(=O)(=O)O)cc3cc(S(=O)(=O)O)cc(NC(=O)c4ccccc4OC)c3c2O)c(OC)cc1N=Nc1c(S(=O)(=O)O)cc2cc(S(=O)(=O)O)cc(NC(=O)c3ccccc3)c2c1O` [Compound 25] the LD50 at 168 h [2] was 160 mg/kg and the “Ames Test result” value [3] was “Negative”.
With `COc1cc(N=Nc2c(S(=O)(=O)O)cc3cc(S(=O)(=O)O)cc(NC(=O)c4ccc(C#N)cc4)c3c2O)c(OC)cc1N=Nc1c(S(=O)(=O)O)cc2cc(S(=O)(=O)O)cc(NC(=O)c3ccccc3)c2c1O` [Compound 26] the LD50 at 168 h [2] was 150 mg/kg and the “Ames Test result” value [3] was “Negative”.
For `O=C(Nc1cc(S(=O)(=O)O)cc2cc(S(=O)(=O)O)c(N=Nc3ccc(N=Nc4c(S(=O)(=O)O)cc5cc(S(=O)(=O)O)cc(NC(=O)c6cccc(Cl)c6Cl)c5c4O)cc3)c(O)c12)c1ccc(Cl)cc1Cl` [Compound 29], the “Ames Test result” value [3] was “Negative”.
For `O=C(Nc1cc(S(=O)(=O)O)cc2cc(S(=O)(=O)O)c(N=Nc3ccc(N=Nc4c(S(=O)(=O)O)cc5cc(S(=O)(=O)O)cc(NC(=O)c6cccc(Cl)c6Cl)c5c4O)c(Cl)c3)c(O)c12)c1ccc(Cl)cc1Cl` [Compound 30], the “Ames Test result” value [3] was “Negative”.
Work on `Cc1cc(N=Nc2c(S(=O)(=O)O)cc3cc(S(=O)(=O)O)cc(NC(=O)c4cccc(Cl)c4Cl)c3c2O)c(C)cc1N=Nc1c(S(=O)(=O)O)cc2cc(S(=O)(=O)O)cc(NC(=O)c3ccc(Cl)cc3Cl)c2c1O` [Compound 31] yielded an inhibition at 1.25 µg/mL ([1]; 10% FCS) of 0%, an inhibition at 2.5 µg/mL ([1]; 10% FCS) of 88% and an inhibition at 5 µg/mL ([1]; 10% FCS) of 100%. The “Ames Test result” value [3] was “Negative”.
In the case of `COc1cc(N=Nc2c(O)ccc3ccc(S(=O)(=O)O)cc23)c(OC)cc1N=Nc1c(S(=O)(=O)O)cc2cc(S(=O)(=O)O)cc(NC(=O)c3ccc(Cl)cc3Cl)c2c1O` [Compound 34], the “Ames Test result” value [3] was “Negative”.
In the case of `COc1cc(N=Nc2c(O)ccc3ccc(S(=O)(=O)O)cc23)c(OC)cc1N=Nc1c(S(=O)(=O)O)cc2cc(S(=O)(=O)O)cc(NC(=O)c3cccc(C(F)(F)F)c3)c2c1O` [Compound 36], the “Ames Test result” value [3] was “Negative”.
In the case of `COc1cc(N=Nc2c(O)ccc3ccc(S(=O)(=O)O)cc23)c(OC)cc1N=Nc1c(S(=O)(=O)O)cc2cc(S(=O)(=O)O)cc(NC(=O)c3ccc(C#N)cc3)c2c1O` [Compound 37], the “Ames Test result” value [3] was “Negative”.
Work on `COc1cc(N=Nc2c(O)ccc3ccc(S(=O)(=O)O)cc23)c(OC)cc1N=Nc1c(S(=O)(=O)O)cc2cc(S(=O)(=O)O)cc(NC(=O)c3cccc4ccccc34)c2c1O` [Compound 38] yielded an inhibition at 1.25 µg/mL ([1]; 10% FCS) of 99%, an inhibition at 2.5 µg/mL ([1]; 10% FCS) of 99% and an inhibition at 5 µg/mL ([1]; 10% FCS) of 100%. For the same compound, the “Ames Test result” value [3] was “Negative”.
For `COc1cc(N=Nc2c(O)ccc3ccc(S(=O)(=O)O)cc23)c(OC)cc1N=Nc1c(S(=O)(=O)O)cc2cc(S(=O)(=O)O)cc(NC(=O)c3ccc4ccccc4c3)c2c1O` [Compound 39], the “Ames Test result” value [3] was “Negative”.
For `COc1cc(N=Nc2c(O)ccc3ccc(S(=O)(=O)O)cc23)c(OC)cc1N=Nc1c(S(=O)(=O)O)cc2cc(S(=O)(=O)O)cc(NC(=O)c3cccnc3)c2c1O` [Compound 40], the “Ames Test result” value [3] was “Negative”.
With `COc1cc(N=Nc2c(O)ccc3ccc(S(=O)(=O)O)cc23)c(OC)cc1N=Nc1c(S(=O)(=O)O)cc2cc(S(=O)(=O)O)cc(NC(=O)COc3ccccc3)c2c1O` [Compound 41] the “Ames Test result” value [3] was “Negative”.
`COc1cc(N=Nc2c(O)ccc3ccc(S(=O)(=O)O)cc23)c(OC)cc1N=Nc1c(S(=O)(=O)O)cc2cc(S(=O)(=O)O)cc(NC(=O)Cc3cccc4ccccc34)c2c1O` [Compound 42] gave an inhibition at 1.25 µg/mL ([1]; 10% FCS) of 28%, an inhibition at 2.5 µg/mL ([1]; 10% FCS) of 99% and an inhibition at 5 µg/mL ([1]; 10% FCS) of 99%. For the same compound, the “Ames Test result” value [3] was “Negative”.
For `CCC(C)(C)c1ccc(OCC(=O)Nc2cc(S(=O)(=O)O)cc3cc(S(=O)(=O)O)c(N=Nc4cc(OC)c(N=Nc5c(O)ccc6ccc(S(=O)(=O)O)cc56)cc4OC)c(O)c23)c(C(C)(C)CC)c1` [Compound 43], the inhibition at 1.25 µg/mL ([1]; 10% FCS) was 0%, the inhibition at 2.5 µg/mL ([1]; 10% FCS) was 0% and the inhibition at 5 µg/mL ([1]; 10% FCS) was 99%. The “Ames Test result” value [3] was “Negative”.
In the case of `O=C(Nc1cc(S(=O)(=O)O)cc2cc(S(=O)(=O)O)c(N=Nc3ccc(N=Nc4c(O)ccc5ccc(S(=O)(=O)O)cc45)cc3Cl)c(O)c12)c1ccccc1` [Compound 45], the inhibition at 1.25 µg/mL ([1]; 10% FCS) was 92%, the inhibition at 2.5 µg/mL ([1]; 10% FCS) was 99% and the inhibition at 5 µg/mL ([1]; 10% FCS) was 99%.
